Data set [1] has as its system mouse prefrontal cortex. The note with it: subeffective dose of SB269970 with subeffective dose of lurasidone; awake freely moving mice; cited from earlier work.
The conditions of data set [2]: in vivo; cited from earlier work.
In data set [3] the test system is acutely psychotic SCZ patients. The experiment in a line: Pearl 1 and Pearl 2 six-week randomized placebo-controlled lurasidone trials, GWAS sample. The format is in vivo, human. On the procedure:
The clinical trials, subjects, and genotyping. The two clinical trials used for this analysis are both six-week, randomized, double-blind, lurasidone, placebo-controlled, multicenter registration trials, of DSM-IV acutely psychotic SCZ patients (Meltzer et al., 2011b; Nasrallah et al., 2013b). Patients who met TRS criteria were excluded. There were four fixed-dose treatment arms: lurasidone 40 and 120 mg/day, another atypical APD, olanzapine, 15 mg/day, and placebo (Pearl 1) (Meltzer et al., 2011b) and lurasidone 40, 80, and 120 mg/day, and placebo (Pearl 2) (Nasrallah et al., 2013b). The percentages of patients who achieved the a priori determined response: >20% improvement in ΔPANSS-T, was 61% in both the Pearl 1 and 2 studies. A total of 171/63 Caucasian and 131/54 AA for lurasidone/placebo-treated patients consented to participate in the genetic study. Ethnicity was validated as described below.
Evaluation of treatment response. The primary measure of efficacy, ΔPANSS-Total, was the difference between baseline and last observation carried forward (LOCF) for those with at least one PANSS rating after baseline. Results could be pooled across drug dosage arms because clinical change was not dose related (data not presented). The intention-to-treat (ITT) population included 157, 73, and 156 patients who received 40, 80, and 120 mg/day doses of lurasidone, respectively. Subjects within the 30th percentiles for greatest or least improvement in PANSS-Total (referred to as best and worst responders, hereafter) were included in a secondary analysis as previously done for iloperidone (Lavedan et al., 2009).
Population stratification. […] Population stratification and separation was employed throughout the following analyses. This process yielded 234 Caucasians, 171 and 63 in the lurasidone- and placebo-treated groups, respectively. There were […], 131 and 54 in the lurasidone- and placebo groups, respectively. Adjustment using the top three PCs within each ethnic group was applied to the association tests. The QQ plots indicated no marked deviations of the observed distributions from the expected null distributions with genome inflation factor=1.00 for both ethnic groups (FIG. 1c, d). Both Kolmogorov-Smimov and Shapiro-Wilk tests indicated ΔPANSS-T followed the normal distribution with skewness and kurtosis indices between-1 and +1. Therefore, no subjects had to be excluded from the analysis.

In data set [4] the test system is acutely psychotic SCZ patients. The experiment in a line: PEARL 1, 2 and PEARL 3 six-week placebo-controlled lurasidone trials, GWAS subjects of the meta-analysis. Format: in vivo, human. The source says:
Participants. The three clinical trials (Loebel et al., 2013a; Meltzer et al., 2011a; Nasrallah et al., 2013) used in this analysis were six-week, randomized, double-blind, placebo-controlled, multicenter registration trials, of DSM-IV acutely psychotic SCZ patients. The primary measure of efficacy, ΔPANSS-TOT, was the difference between baseline and last observation carried forward (LOCF) for those with at least one PANSS rating at, or after two weeks of treatment, (ΔPANSS-TOTLOCF6WK=PANSSTOTLOCF6WK-PANSS-TOTBaseline). The overall mean percentage of patients who achieved a priori determined response: ≥20% improvement in ΔPANSS-TOTLOCF6WK, was 61% in the PEARL 1, 2 and 3 studies. A total of 587 subjects with valid treatment response data and verified race from two ethnic populations, EUR and AFR, gave written informed consent to participate in genetics study (368 of 545 (67.5% with EUR ancestry and 219 of 403 (54.3% with AFR ancestry). These trials included a small number of patients randomized to treatment with olanzapine (PEARL 1) or quetiapine (PEARL 3). There were too few subjects with genetic data to include them as a separate group in this analysis.
PEARL 3 was considered an independent dataset due to a significant difference in PANSS-TOTBaseline, inclusion of a higher dose of lurasidone (160 mg/d), and an unequal variance, compared to PEARL 1/2, in ΔPANSS-TOTLOCF6WK by Leven test (Table 1). Samples from the corresponding placebo groups of all three trials were pooled together due to a relatively small sample size per trial and absence of significant differences in demographic and clinical data. Thus, three groups (PEARL 1+2, PEARL 3 and Placebo) per ethnicity were independently examined for quality control (QC), PCA for genetic architectures, and GWAS analyses before determining summary statistics at the individual SNP level. Both Kolmogorov-Smimov and Shapiro-Wilk tests indicated ΔPANSS-TOTLOCF6WK followed a normal distribution with skewness and kurtosis indices between −1 and +1. Therefore, no subjects were excluded from the analysis.

The mark [5] stands for this setting: African ancestry, Pearl 1, 2, n=124.
The mark [6] stands for this setting: African ancestry, Pearl 3, n=34.
Where [7] appears, read: European ancestry, Pearl 1, 2, n=165.
Where [8] appears, read: European ancestry, Pearl 3, n=99.

In the case of `CC1CCN(CC[C@H]2CCCN2S(=O)(=O)c2cccc(O)c2)CC1` [SB269970], in data set [1], the “effect on lurasidone-induced dopamine efflux” value was “potentiated”.
Take `O=C1[C@@H]2[C@H]3CC[C@H](C3)[C@@H]2C(=O)N1C[C@@H]1CCCC[C@H]1CN1CCN(c2nsc3ccccc23)CC1` [lurasidone]: the side effect profile result in data set [2] was “relatively benign side effect profile”. In addition, in data set [3] (African-Americans, n=131), the “PANSS anxiety/depression Change (LOCP)” value is given as −3.3 ± 4.1, the “PANSS disorganization Change (LOCF)” value is reported as −4.0 ± 4.4, the “PANSS excited Change (LOCF)” value is reported as −1.2 ± 4.0 and the “PANSS negative Change (LOCF)” value was −4.2 ± 4.6. In addition, in data set [3] (African-Americans, n=131), the “PANSS positive Change (LOCF)” value is on record as −5.3 ± 4.4 and the “PANSS total Change (LOCF)” value is given as −18.0 ± 16.3. Moreover, in data set [3] (Caucasians, n=171), the “PANSS anxiety/depression Change (LOCP)” value is −2.1 ± 4.2, the “PANSS disorganization Change (LOCF)” value is listed as −4.0 ± 4.2, the “PANSS excited Change (LOCF)” value is −1.4 ± 3.7 and the “PANSS negative Change (LOCF)” value is reported as −3.3 ± 4.8. In addition, in data set [3] (Caucasians, n=171), the “PANSS positive Change (LOCF)” value is listed as −5.1 ± 4.9 and the “PANSS total Change (LOCF)” value is −15.9 ± 17.0. For the same compound, the “CGI Change (LOCF)” value in data set [3] (Caucasians, n=171, lurasidone 40/80/120 mg, baseline to LOCF, mean ± SD) is −1.0 ± 1.0. Besides, the “percentages of patients who achieved the a priori determined response: >20% improvement in ΔPANSS-T” value in data set [3] (both the Pearl 1 and 2 studies) came to 61%. Further, in data set [4] (setting [5]), the “% change of Psychopathology PANSE_NEG” value was −13.44(22.75) %, the “% change of Psychopathology PANSS_POS” value was −25.80(24.91) %, the “% change of Psychopathology PANSS_TOT” value is recorded as −16.55(17.79) % and the “Δ change of Psychopathology PANSS_NEG” value is reported as −3.26(4.82). In addition, in data set [4] (setting [5]), the “Δ change of Psychopathology PANSS_POS” value is −5.15(4.93). Moreover, the “Δ change of Psychopathology PANSS_TOT” value in data set [4] (African ancestry, Pearl 1, 2, n=124, lurasidone 40/80/120 mg/d) is −15.88(16.97). In data set [4] (setting [6]), the “% change of Psychopathology PANSE_NEG” value is −15.66(22.26) %, the “% change of Psychopathology PANSS_POS” value is −30.04(22.51) %, the “% change of Psychopathology PANSS_TOT” value was −22.47(19.05) % and the “Δ change of Psychopathology PANSS_NEG” value is recorded as −3.85(4.88). Further, the “Δ change of Psychopathology PANSS_POS” value in data set [4] (setting [6]) is reported as −5.71(4.35). Moreover, the “Δ change of Psychopathology PANSS_TOT” value in data set [4] (African ancestry, Pearl 3, n=34, lurasidone 80/160 mg/d) was −21.95(18.15). Besides, in data set [4] (setting [7]), the “% change of Psychopathology PANSS_NEG” value is given as −13.44(22.75) %, the “% change of Psychopathology PANSS_POS” value is −25.80(24.91) %, the “% change of Psychopathology PANSS_TOT” value was −16.55(17.79) % and the “Δ change of Psychopathology PANSS_NEG” value was −3.26(4.82). Besides, in data set [4] (setting [7]), the “Δ change of Psychopathology PANSS_POS” value was −5.15(4.93). The “Δ change of Psychopathology PANSS_TOT” value in data set [4] (European ancestry, Pearl 1, 2, n=165, lurasidone 40/80/120 mg/d) was −15.88(16.97). In addition, in data set [4] (setting [8]), the “% change of Psychopathology PANSS_NEG” value is −15.66(22.26) %, the “% change of Psychopathology PANSS_POS” value is on record as −30.04(22.51) %, the “% change of Psychopathology PANSS_TOT” value was −22.47(19.05) % and the “Δ change of Psychopathology PANSS_NEG” value was −3.85(4.88). For the same compound, in data set [4] (setting [8]), the “Δ change of Psychopathology PANSS_POS” value was −5.71(4.35). Also, in data set [4] (European ancestry, Pearl 3, n=99, lurasidone 80/160 mg/d), the “Δ change of Psychopathology PANSS_TOT” value is −21.95(18.15). The “overall mean percentage of patients who achieved a priori determined response: ≥20% improvement in ΔPANSS-TOTLOCF6WK” value in data set [4] (PEARL 1, 2 and 3 studies) is given as 61%.

Source of the values: patent US20230386637A1, “Polymorphisms for Predicting Treatment Response to Antipsychotic Drugs and Identifying New Drug Targets” (Northwestern University, priority 2018, published 2023).
